The text below walks through data of ChEMBL document CHEMBL1141870, “Discovery of potent chromen-4-one inhibitors of the DNA-dependent protein kinase (DNA-PK) using a small-molecule library approach” (J Med Chem, 2005).

The term inhibition denotes how much of the control response was suppressed. Read a low inhibition as a response near the control.

DNA-dependent protein kinase catalytic subunit, sequence (P78527 whole entry): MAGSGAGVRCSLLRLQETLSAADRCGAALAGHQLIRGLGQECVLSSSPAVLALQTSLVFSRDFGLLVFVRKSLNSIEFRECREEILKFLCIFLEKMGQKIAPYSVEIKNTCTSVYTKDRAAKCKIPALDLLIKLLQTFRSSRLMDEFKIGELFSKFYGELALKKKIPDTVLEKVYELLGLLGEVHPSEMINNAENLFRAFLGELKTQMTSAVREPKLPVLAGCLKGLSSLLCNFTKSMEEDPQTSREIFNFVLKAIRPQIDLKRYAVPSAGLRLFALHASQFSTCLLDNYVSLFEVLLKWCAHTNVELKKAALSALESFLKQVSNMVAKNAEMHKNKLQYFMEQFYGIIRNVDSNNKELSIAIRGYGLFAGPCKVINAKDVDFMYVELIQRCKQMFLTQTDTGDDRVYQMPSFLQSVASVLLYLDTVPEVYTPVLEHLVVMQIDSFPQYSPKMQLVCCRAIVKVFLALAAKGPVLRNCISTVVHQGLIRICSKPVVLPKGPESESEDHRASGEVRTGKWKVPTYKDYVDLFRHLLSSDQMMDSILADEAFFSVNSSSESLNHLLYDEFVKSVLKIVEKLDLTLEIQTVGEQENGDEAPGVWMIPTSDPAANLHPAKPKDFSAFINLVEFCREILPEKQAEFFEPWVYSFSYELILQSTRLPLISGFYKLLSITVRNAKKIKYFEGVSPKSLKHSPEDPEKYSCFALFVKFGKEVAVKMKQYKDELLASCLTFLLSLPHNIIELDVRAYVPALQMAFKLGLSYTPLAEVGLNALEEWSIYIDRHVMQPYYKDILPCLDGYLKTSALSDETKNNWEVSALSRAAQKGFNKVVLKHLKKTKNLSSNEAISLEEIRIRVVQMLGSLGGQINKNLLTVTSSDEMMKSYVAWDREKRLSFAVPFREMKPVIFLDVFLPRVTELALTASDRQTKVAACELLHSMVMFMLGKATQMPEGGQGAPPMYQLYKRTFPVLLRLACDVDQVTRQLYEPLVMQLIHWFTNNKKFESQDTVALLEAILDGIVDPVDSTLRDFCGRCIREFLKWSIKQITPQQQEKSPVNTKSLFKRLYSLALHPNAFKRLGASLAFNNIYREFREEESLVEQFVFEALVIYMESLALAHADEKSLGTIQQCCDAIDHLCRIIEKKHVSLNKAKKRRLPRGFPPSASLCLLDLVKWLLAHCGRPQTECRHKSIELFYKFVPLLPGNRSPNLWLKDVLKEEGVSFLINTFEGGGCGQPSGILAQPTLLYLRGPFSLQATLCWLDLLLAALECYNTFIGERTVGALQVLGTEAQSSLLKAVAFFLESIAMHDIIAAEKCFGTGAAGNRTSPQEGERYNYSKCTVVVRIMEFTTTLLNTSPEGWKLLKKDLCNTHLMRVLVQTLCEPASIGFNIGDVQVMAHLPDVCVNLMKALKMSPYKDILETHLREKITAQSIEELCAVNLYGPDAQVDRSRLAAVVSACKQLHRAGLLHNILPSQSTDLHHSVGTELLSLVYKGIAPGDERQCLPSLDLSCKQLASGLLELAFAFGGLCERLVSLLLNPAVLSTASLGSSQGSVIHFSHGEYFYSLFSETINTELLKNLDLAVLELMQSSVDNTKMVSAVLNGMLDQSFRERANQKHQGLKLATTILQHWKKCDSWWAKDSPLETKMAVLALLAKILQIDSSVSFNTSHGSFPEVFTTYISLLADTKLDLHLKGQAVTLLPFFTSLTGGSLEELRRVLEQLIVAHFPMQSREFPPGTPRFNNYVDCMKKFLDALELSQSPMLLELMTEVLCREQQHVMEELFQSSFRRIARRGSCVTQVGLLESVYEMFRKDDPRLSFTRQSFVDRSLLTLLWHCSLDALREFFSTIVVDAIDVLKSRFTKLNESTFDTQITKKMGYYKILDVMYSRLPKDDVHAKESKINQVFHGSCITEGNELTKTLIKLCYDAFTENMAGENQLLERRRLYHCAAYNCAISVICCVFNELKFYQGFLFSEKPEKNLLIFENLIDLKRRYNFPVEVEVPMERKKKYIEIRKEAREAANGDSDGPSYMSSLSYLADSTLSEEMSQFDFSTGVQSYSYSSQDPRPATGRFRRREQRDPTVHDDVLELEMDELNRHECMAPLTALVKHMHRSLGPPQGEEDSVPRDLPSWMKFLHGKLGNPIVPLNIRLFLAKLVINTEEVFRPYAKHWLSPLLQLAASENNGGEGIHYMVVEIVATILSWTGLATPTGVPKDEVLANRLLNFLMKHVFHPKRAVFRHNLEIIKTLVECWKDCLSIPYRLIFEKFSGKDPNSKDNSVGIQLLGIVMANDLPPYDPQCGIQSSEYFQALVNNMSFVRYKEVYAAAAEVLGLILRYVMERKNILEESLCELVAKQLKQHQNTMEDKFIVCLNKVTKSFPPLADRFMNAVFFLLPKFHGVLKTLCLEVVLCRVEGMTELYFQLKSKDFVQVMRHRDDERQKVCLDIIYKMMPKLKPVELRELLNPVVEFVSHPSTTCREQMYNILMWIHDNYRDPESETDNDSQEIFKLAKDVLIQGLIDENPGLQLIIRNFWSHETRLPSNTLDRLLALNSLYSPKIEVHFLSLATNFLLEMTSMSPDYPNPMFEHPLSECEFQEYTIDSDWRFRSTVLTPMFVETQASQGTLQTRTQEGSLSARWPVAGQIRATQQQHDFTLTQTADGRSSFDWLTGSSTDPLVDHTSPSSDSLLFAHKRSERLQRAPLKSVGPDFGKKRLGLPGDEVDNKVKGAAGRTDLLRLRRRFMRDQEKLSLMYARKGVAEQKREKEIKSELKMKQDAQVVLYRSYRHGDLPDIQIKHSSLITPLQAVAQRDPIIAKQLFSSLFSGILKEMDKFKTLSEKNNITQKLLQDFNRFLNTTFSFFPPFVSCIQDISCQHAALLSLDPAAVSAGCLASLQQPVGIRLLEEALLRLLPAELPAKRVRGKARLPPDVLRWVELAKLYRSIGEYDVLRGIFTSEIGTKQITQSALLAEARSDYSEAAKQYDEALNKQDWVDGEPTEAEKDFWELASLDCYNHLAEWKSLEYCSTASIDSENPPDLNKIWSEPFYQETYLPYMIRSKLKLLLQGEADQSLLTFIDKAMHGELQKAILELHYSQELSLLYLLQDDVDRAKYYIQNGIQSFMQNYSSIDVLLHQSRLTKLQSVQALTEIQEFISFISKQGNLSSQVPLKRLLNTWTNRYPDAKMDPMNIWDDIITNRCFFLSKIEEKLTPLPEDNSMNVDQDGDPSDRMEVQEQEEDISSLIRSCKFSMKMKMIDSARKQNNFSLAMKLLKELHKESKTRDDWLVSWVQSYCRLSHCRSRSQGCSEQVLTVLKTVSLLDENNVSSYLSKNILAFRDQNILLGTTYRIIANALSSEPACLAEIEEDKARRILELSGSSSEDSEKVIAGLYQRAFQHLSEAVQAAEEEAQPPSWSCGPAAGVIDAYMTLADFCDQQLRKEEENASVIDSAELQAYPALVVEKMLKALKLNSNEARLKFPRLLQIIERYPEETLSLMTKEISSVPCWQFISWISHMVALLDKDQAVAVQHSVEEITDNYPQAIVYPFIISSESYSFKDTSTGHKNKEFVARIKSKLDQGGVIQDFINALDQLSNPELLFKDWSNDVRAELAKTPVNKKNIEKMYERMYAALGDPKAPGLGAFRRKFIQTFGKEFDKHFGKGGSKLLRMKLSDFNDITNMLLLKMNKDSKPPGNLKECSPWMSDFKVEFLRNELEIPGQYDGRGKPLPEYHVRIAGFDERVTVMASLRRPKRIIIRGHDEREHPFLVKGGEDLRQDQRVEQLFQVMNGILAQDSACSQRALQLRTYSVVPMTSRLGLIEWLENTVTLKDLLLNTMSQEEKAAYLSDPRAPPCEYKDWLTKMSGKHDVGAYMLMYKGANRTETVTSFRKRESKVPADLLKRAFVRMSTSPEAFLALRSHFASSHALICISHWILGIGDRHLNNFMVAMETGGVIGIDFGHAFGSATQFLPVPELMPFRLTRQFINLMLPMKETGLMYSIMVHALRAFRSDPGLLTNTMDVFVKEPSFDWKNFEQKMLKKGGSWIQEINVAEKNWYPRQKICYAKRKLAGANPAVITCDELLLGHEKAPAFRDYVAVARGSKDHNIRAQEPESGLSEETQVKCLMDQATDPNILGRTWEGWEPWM

This assay concerns the target DNA-dependent protein kinase catalytic subunit (Homo sapiens, UniProt P78527). Briefly: Inhibition against DNA-dependent protein kinase receptor at 0.5uM.
Take `CC(=O)c1ccccc1-c1ccc2c(=O)cc(N3CCOCC3)oc2c1`: the inhibition was 26%. In the case of `O=c1cc(N2CCOCC2)oc2cc(-c3cccc(CO)c3)ccc12` it was 16%; in that of `O=c1cc(N2CCOCC2)oc2cc(-c3cccc(OC(F)(F)F)c3)ccc12`, 20%.

`O=c1cc(N2CCOCC2)oc2cc(-c3ccccc3OCc3ccccc3)ccc12` gave an inhibition of 30%. In turn, `O=c1cc(N2CCOCC2)oc2ccc(-c3ccccc3-c3ccccc3)cc12` showed an inhibition of 56%.

Take `O=C(OCc1ccccc1)c1ccc(-c2ccc3oc(N4CCOCC4)cc(=O)c3c2)cc1`: the inhibition was found to be 31%. `O=c1cc(N2CCOCC2)oc2ccc(-c3ccc(O)cc3)cc12`: the inhibition worked out at 57%. In turn, `O=c1cc(N2CCOCC2)oc2cc(-c3ccccc3CO)ccc12` returned an inhibition of 15%. Regarding `COc1ccc(-c2ccc3c(=O)cc(N4CCOCC4)oc3c2)cc1`, the inhibition is 22%. The figure for `O=c1cc(N2CCOCC2)oc2ccc(-c3cccc(O)c3)cc12` is 56%; for `N#Cc1ccc(-c2ccc3c(=O)cc(N4CCOCC4)oc3c2)cc1` it is 29%. Consider `COC(=O)c1ccccc1-c1ccc2oc(N3CCOCC3)cc(=O)c2c1`, for which the inhibition turned out to be 30%. `COC(=O)/C=C\c1ccccc1-c1ccc2oc(N3CCOCC3)cc(=O)c2c1`: the inhibition was found to be 63%. Compound `O=c1cc(N2CCOCC2)oc2ccc(-c3ccc4ccccc4c3)cc12` showed an inhibition of 4%. Regarding `O=c1cc(N2CCOCC2)oc2ccc(-c3ccc4[nH]ccc4c3)cc12`, the inhibition came to 17%.

Regarding `COC(=O)/C=C/c1ccc(-c2ccc3c(=O)cc(N4CCOCC4)oc3c2)cc1`, the inhibition turned out to be 14%.

`COC(=O)/C=C/c1cccc(-c2ccc3oc(N4CCOCC4)cc(=O)c3c2)c1` had an inhibition of 76%. With `O=c1cc(N2CCOCC2)oc2ccc(-c3cccc4c3Sc3ccccc3S4)cc12`, the inhibition is 55%. As to `O=c1cc(N2CCOCC2)oc2ccc(-c3ccsc3)cc12`, the inhibition turned out to be 42%. Compound `O=c1cc(N2CCOCC2)oc2ccc(-c3cccc(OCc4ccccc4)c3)cc12` returned an inhibition of 35%.

Take `O=C1c2ccccc2C(=O)N1Cc1cccc(-c2ccc3oc(N4CCOCC4)cc(=O)c3c2)c1`: the inhibition worked out at 55%.

As to `O=c1cc(N2CCOCC2)oc2ccc(-c3ccc(CO)cc3)cc12`, the inhibition was 58%.

Consider `O=c1cc(N2CCOCC2)oc2cc(-c3cccc(O)c3)ccc12`, for which the inhibition was determined as 33%.

For `O=c1cc(N2CCOCC2)oc2cc(-c3cccc(OCc4ccccc4)c3)ccc12`, the inhibition turned out to be 29%. As to `O=c1cc(N2CCOCC2)oc2ccc(-c3cccs3)cc12`, the inhibition was found to be 43%. With `O=c1cc(N2CCOCC2)oc2ccc(-c3cccc(OC(F)(F)F)c3)cc12`, the inhibition came to 47%. With `COC(=O)c1ccc(-c2ccc3oc(N4CCOCC4)cc(=O)c3c2)cc1`, the inhibition stood at 16%.
